Experimental data from patent US5801176A, “Substituted benzothienylpiperazines and their use” (Hoechst Marion Roussel, Inc., priority 1997, dated 1998).
Where a name gives a salt, the structure may show the parent alone.

System: apomorphine climbing
Assay: climbing mice assay (apomorphine-induced climbing, antipsychotic activity)
Format: in vivo
Conditions: Mus musculus, 0.5 h; 20 mg/kg, ip @ 30 (min before apomorphine 1.5 mg/kg sc); read-out: CLIMBING MOUSE % (percent response, climbing score vs. control set to 100%)
Method: The compounds of the present invention are useful for treating psychoses by virtue of their ability to elicit an antipsychotic response in mammals. Antipsychotic activity is determined in the climbing mice assay by a method similar to those described by P. Protais, et al., Psychopharmacol.,50:1 (1976) and B. Costall, Eur. J. Pharmacol., 50:39 (1978).
Subject […] male mice (23-27 grams) are group-housed under standard laboratory conditions. The mice are individually placed in wire mesh stick cages (4"×10") and are allowed one hour for adaption and exploration of the new environment. Then apomorphine is injected subcutaneously at 1.5 mg/kg, a dose causing climbing in all subjects for 30 minutes. Compounds to be tested for antipsychotic activity are injected intraperitioneally or given by oral doses at various time intervals., e.g. 30 minutes, 60 minutes, etc., prior to the apomorphine challenge at a screening dose of 10-60 mg/kg.
For evaluation of climbing, 3 readings are taken at 10, 20 and 30 minutes after apomorphine administration according to the following scale:
4 paws on bottom (no climbing)
2 paws on the wall (rearing)
4 paws on the wall (full climb)
Mice consistently climbing before the injection of apomorphine are discarded.
With full-developed apomorphine climbing, the animals are hanging on to the cage walls, rather motionless, over long periods of time. By contrast, climbs due to mere motor stimulation usually only last a few seconds.
The climbing scores are individually totaled (maximal score: 6 per mouse over 3 readings) and the total score of the control group (vehicle intraperitoneally-apomorphine subcutaneously) is set to 100%. The percent response at a dose of 20 mg/kg. or the ED50 values with 95% confidence limits, calculated by a linear regression analysis, of some of the compounds of the present invention as well as a standard antipsychotic agent are presented in Table 1.

Question: For NCCCCN1CCN(c2csc3cc(F)ccc23)CC1 [4-(6-Fluorobenzo[b]thien-3-yl)-1-piperazinebutanamine (Z)-2-butenedioate (1:2)], which change in vivo at 20 mg/kg is on record?
Answer: -34%

Question: How did the change in vivo at 20 mg/kg turn out when O=C1c2ccccc2C(=O)N1CCN1CCN(c2csc3cc(F)ccc23)CC1 [N-[2-[4-(6-Fluorobenzo[b]thien-3-yl)-1-piperazinyl]-ethyl]-phthalimide] was run?
Answer: -25%

Question: With O=C(NCCCCN1CCN(c2csc3cc(F)ccc23)CC1)c1cccs1 [N-[4-[4-(6-Fluorobenzo[b]thien-3-yl)-1-piperazinyl]butyl]-2-thiophenecarboxamide (Z)-2-butenedioate (1:1)] as the molecule, how does the change in vivo at 20 mg/kg read?
Answer: -100%

Question: With O=C1c2ccccc2C(O)N1CCN1CCN(c2csc3cc(F)ccc23)CC1 (stereo not shown) [2-[2-[4-(6-Fluorobenzo[b]thien-3-yl)-1-piperazinyl]-ethyl-2,3-dihydro-3-hydroxy-1H-isoindol-1-one] as the molecule, how does the change in vivo at 20 mg/kg read?
Answer: -43%

Question: For Fc1ccc2c(N3CCN(CCCCN4Cc5ccccc5C4)CC3)csc2c1, which change in vivo at 20 mg/kg is on record?
Answer: -33%

Question: With O=C1c2ccccc2C(=O)N1CCCCN1CCN(c2csc3cc(F)ccc23)CC1 [2-[4-[4-(6-Fluorobenzo[b]thien-3-yl)-1-piperazinyl]butyl]-1H-isoindole-1,3(2H)-dione] as the molecule, how does the change in vivo at 20 mg/kg read?
Answer: -100%

Question: O=C(NCCCCN1CCN(c2csc3cc(F)ccc23)CC1)C12CC3CC(CC(C3)C1)C2 [N-[4-[4-(6-Fluorobenzo[b]thien-3-yl)-1-piperazinyl]butyl]-adamantane-1-carboxamide maleate] was tested. Which change in vivo at 20 mg/kg did it give?
Answer: -79%

Question: Which change in vivo at 20 mg/kg does the source give for CC(=O)N(CCCCN1CCN(c2csc3cc(F)ccc23)CC1)C(=O)C(C)C [N-Acetyl-N-[4-[4-(6-fluorobenzo[b]thien-3-yl)-1-piperazinyl]butyl]-2-methyl-propanamide] here?
Answer: -75%

Same assay, conditions: Mus musculus, 0.5 h; ip @ 30 (min before apomorphine 1.5 mg/kg sc); parentheses = 95% confidence limits

Question: Which ED50 does the source give for CC(C)C(=O)NCCCCN1CCN(c2csc3cc(F)ccc23)CC1 [N-[4-[4-(6-fluorobenzo[b]thien-3-yl)-1-piperazinyl]butyl]-2-methyl-propanamide] here?
Answer: 1.3 mg/kg

Question: With CC(=O)NCCCCN1CCN(c2csc3cc(F)ccc23)CC1 [N-[4-[4-(6-Fluorobenzo[b]thien-3-yl)-1-piperazinyl]butyl-acetamide] as the molecule, how does the ED50 read?
Answer: 1.35 mg/kg
